# Assay results from US9994564B2, “Myosin II ATPase inhibitor compounds” (priority 2014, dated 2018).
# Several values for one entry are separate records, joined by “and”; a condition that tells them apart may be missing. Equal entries are not always repeated.
# Legend:
# [1] = test system: rat bladder smooth muscle strip (detrusor); test: Pre-incubation with blebbistatin: electrical field stimulation-induced rat bladder contraction; format: cell-based; conditions: pre-incubation 10 μM for 30 min, 32 Hz
# Procedure: (§1) Experimental materials and methods: All chemical were from Sigma (St. Louis, USA) except (±) blebbistatin (racemic blebbistatin) was from Tocris (Ellisville, Mo.). […] Rat bladder body and aorta were obtained from 17 (275-300 gram) adult male Sprague-Dawley (SD) rats (Charles River; Raleigh, N.C.). All animal studies were approved by the Animal Institute Committee of the Albert Einstein College of Medicine.
# In vitro organ bath studies: The in vitro contractility studies were performed as previously described by Zhang X, Kuppam D, Aydin M, Melman A, DiSanto M. “In vitro and in vivo relaxation of corpus cavernosum smooth muscle by the selective myosin II inhibitor, blebbistatin.” J Sex Med 2009; 6:2661-71, Sandhu K S, Chua R G, Zhang X, et al. “Regional heterogeneity in expression of the sphingosine-1-phosphate pathway in the female rat lower urinary tract”; Am J Obstet Gynecol 2009; 200:576-7; Chua R G, Calenda G, Zhang X, et al. “Testosterone regulates erectile function and Vcsal expression in the corpora of rats”; Mol Cell Endocrinol 2009; 303:67-73. […] Next, all strips were pre-contracted with 60 mM KCl, or 1 μM CC (rat bladder), or 20 nM endothelin-1 (ET-1) (human bladder) and allowed to reach stable tension and then the relaxant effects of increasing doses of blebbistatin were evaluated. […]
# bladder of awake rat = test: Awake rat cystometry (urodynamics) after intravesical blebbistatin; format: in vivo
# Procedure: Cystometric evaluation of bladder function was performed as previously described on a separate set of 5 rats. See Malmgren A, Andersson P O, Uvelius B. “Bladder function in rats with short- and long-term diabetes; effects of age and muscarinic blockade” J Urol 1989; 142:1608-14; Melman A, Zotova E, Kim M, et al. “Longitudinal studies of time-dependent changes in both bladder and erectile function after streptozotocin-induced diabetes in Fischer 344 male rats” BJU Int 2009, 104:1292-300; Suadicani S O, Urban-Maldonado M, Tar M T, Melman A, Spray D C. “Effects of ageing and streptozotocin-induced diabetes on connexin43 and P2 purinoceptor expression in the rat corpora cavernosa and urinary bladder” BJU Int 2009; 103:1686-93. Under anesthesia, a PE 50 catheter with a cuff was surgically inserted into the bladder dome and exited through an orifice made in the back of the animal. […] The bladder catheter was connected to a 2-way valve that is, in turn connected to a pressure transducer as well as an infusion pump (model PHD 2000, Harvard Instruments; MA, USA). Rat bladder was infused with vehicle for 30 min and then cystometry was performed. After that, the same rat was treated with 250 nmols blebbistatin for the same period and cystometry was similarly repeated. One rat had bladder over-activity possibly due to post-surgical infection and thus blebbistatin was kept in the bladder for only about 5 min. The rate of infusion of room temperature saline was set at 10 ml/h. Bladder activity was continuously recorded after the first micturition, and subsequently at least 2 h of data were recorded from each rat. Statistical analysis: Results are expressed as mean±SEM for n experiments. Statistical analysis was performed using either the Student's t-test (when two sample treatments were being compared) or using ANOVA when multiple means were compared. p<0.05 was considered significant.
# Bladder function was evaluated using the following urodynamic criteria: bladder capacity: (BC=volume of infused saline discharged at micturition); micturition volume (MV=the volume of urine discharged during micturition); residual volume (RV=volume of infused saline minus micturition volume); basal pressure (BP=the lowest average bladder pressure recorded during cystometry); micturition pressure (MP=peak bladder pressure during micturition); Bcom=bladder compliance; MF=micturition frequency; and the * indicates <0.05 vs vehicle.
# [2] = biological target: Non-muscle Myosin IIA ATPase (Homo sapiens, UniProt P35579); conditions: read-out: IC50, inhibition of Non-muscle Myosin IIA ATPase; cited from earlier work
# Chain of Non-muscle Myosin IIA ATPase (P35579 whole entry): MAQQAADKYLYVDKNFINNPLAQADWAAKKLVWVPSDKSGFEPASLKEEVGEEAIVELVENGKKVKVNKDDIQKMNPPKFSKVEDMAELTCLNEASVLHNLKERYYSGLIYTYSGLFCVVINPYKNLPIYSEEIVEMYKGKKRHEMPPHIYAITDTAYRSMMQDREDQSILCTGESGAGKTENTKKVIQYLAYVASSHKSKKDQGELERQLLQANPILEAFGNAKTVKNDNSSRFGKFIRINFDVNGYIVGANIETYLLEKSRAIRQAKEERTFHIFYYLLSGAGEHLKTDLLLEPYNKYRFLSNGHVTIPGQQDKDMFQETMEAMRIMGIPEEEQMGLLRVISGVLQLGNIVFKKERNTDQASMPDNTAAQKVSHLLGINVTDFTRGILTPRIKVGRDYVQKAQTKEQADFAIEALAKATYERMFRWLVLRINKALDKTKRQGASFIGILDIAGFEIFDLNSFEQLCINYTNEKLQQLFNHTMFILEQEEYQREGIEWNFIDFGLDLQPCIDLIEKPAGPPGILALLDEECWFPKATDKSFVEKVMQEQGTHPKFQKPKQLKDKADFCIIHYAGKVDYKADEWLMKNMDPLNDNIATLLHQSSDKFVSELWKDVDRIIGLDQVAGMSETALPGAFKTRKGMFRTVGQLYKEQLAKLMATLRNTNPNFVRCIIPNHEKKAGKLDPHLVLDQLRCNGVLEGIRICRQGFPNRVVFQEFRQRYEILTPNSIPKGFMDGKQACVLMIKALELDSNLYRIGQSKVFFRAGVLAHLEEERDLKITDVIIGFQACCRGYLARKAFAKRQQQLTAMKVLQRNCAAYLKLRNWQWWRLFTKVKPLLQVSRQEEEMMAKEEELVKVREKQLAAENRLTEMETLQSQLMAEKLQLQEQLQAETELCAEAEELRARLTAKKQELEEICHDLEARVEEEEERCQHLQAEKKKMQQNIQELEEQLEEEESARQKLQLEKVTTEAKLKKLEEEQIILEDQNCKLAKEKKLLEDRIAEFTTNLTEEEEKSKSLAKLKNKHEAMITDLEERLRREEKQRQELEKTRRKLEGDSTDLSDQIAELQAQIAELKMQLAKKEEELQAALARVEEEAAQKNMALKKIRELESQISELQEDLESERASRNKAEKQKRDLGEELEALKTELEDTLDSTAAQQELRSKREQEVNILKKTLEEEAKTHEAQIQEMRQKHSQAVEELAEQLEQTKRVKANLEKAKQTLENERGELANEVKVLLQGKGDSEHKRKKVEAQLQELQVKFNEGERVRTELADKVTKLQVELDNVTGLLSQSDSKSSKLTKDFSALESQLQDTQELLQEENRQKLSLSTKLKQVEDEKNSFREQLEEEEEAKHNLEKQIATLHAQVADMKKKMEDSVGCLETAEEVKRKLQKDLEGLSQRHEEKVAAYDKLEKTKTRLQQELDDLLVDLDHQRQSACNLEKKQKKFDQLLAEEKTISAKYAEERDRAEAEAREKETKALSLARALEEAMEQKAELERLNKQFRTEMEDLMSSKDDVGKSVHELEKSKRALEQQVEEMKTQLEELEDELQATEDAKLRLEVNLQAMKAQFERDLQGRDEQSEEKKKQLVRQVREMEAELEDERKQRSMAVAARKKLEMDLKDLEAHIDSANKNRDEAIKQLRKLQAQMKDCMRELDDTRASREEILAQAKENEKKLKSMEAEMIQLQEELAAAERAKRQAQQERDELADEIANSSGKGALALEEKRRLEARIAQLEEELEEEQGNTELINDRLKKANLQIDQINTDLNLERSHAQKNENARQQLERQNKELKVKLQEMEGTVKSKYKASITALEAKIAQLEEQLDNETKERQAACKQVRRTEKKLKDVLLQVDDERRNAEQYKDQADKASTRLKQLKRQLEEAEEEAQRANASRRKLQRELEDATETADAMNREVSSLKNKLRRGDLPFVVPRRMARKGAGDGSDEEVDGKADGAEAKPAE
# Chain of Non-muscle Myosin IIA ATPase (P60660 whole entry partner): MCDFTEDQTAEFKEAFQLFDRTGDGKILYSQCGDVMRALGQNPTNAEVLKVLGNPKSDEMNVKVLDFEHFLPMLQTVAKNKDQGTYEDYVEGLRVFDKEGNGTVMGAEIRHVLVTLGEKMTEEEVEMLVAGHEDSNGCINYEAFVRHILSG
# Chain of Non-muscle Myosin IIA ATPase (O14950 whole entry partner): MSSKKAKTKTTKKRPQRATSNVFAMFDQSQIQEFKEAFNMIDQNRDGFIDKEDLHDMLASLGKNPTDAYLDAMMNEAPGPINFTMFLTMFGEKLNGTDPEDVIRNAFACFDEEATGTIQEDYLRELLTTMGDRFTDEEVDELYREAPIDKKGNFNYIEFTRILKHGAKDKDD
# [3] = test system: rat bladder smooth muscle strip (detrusor); test: Pre-incubation with blebbistatin: carbachol-induced rat detrusor contraction; format: cell-based; conditions: for attenuation of carbachol (CC) responsiveness: pre-incubation 10 μM for 30 min, 1 μM CC
# Procedure: as §1
# (§2) In vitro organ bath studies: The in vitro contractility studies were performed as previously described by Zhang X, Kuppam D, Aydin M, Melman A, DiSanto M. “In vitro and in vivo relaxation of corpus cavernosum smooth muscle by the selective myosin II inhibitor, blebbistatin.” J Sex Med 2009; 6:2661-71, Sandhu K S, Chua R G, Zhang X, et al. “Regional heterogeneity in expression of the sphingosine-1-phosphate pathway in the female rat lower urinary tract”; Am J Obstet Gynecol 2009; 200:576-7; Chua R G, Calenda G, Zhang X, et al. “Testosterone regulates erectile function and Vcsal expression in the corpora of rats”; Mol Cell Endocrinol 2009; 303:67-73. Bladder strips were mounted longitudinally and aortic rings horizontally in a 5 ml organ bath—Multi-Myograph Model 810MS (bladder) or Model 610M (aorta) (Danish Myo Technology; Aarhus, Denmark). The myograph was connected in line to a PowerLab 4/30 Data Acquisition System (ADInstruments; Colorado Springs, Colo.) and in turn to a Dual-Core processor Pentium computer for real-time monitoring of physiological force. The smooth muscle strips were equilibrated at least 1 hour in Krebs-Henseleit (Krebs) buffer at 37° C. with continuous bubbling of 95% O2 and 5% CO2 and buffer was changed every 15 minutes (min). Strips were continuously adjusted to resting tension (0.5 g for rat bladder and 1 g for human bladder (Yamamoto M, Harm S C, Grasser W A, Thiede M A. “Parathyroid hormone-related protein in the rat urinary bladder: a smooth muscle relaxant produced locally in response to mechanical stretch.” Proc Natl Acad Sci USA 1992; 89:5326-30. After equilibration, rat detrusor was contracted with 60 mM KCl and the force induced by cumulative concentrations (10-5-10-1 M) of carbachol (CC) or electrical field stimulation (EFS) at varying frequencies of 2-32 Hz, pulse duration 1.5 ms, train 5 s, and 80 V, was normalized to that KCl response. Next, all strips were pre-contracted with 60 mM KCl, or 1 μM CC (rat bladder), or 20 nM endothelin-1 (ET-1) (human bladder) and allowed to reach stable tension and then the relaxant effects of increasing doses of blebbistatin were evaluated. […] Additionally, the influence of blebbistatin (10 μM) on rat detrusor spontaneous activity and basal tone was evaluated.
# [4] = test system: adult mouse bladder smooth muscle; conditions: 10 uM; tissue depolarized using potassium chloride; cited from earlier work
# [5] = test system: human bladder smooth muscle strip; test: Relaxation of human bladder (base) strips pre-contracted with 20 nM endothelin-1; format: cell-based; conditions: for relaxation of human bladder pre-contracted with endothelin-1: 20 nM ET-1; for relaxation/block of endothelin-1 induced human bladder contraction (in words): dose-dependent
# Procedure: as §1, §2
# [6] = biological target: Smooth Muscle Myosin II ATPase (turkey smooth muscle); conditions: in vitro, read-out: IC50, inhibition of Smooth Muscle Myosin II ATPase; cited from earlier work
# [7] = biological target: Myosin II ATPase in rabbit striated skeletal muscle; conditions: in vitro, read-out: IC50, inhibition of Myosin II ATPase; cited from earlier work
# [8] = test system: rat bladder smooth muscle strip (detrusor); test: Relaxation of rat bladder strips pre-contracted with 60 mM KCl or 1 μM carbachol (organ bath); format: cell-based; conditions: for relaxation of KCl and CC evoked detrusor contraction: 60 mM KCl or 1 μM CC pre-contraction, maximal pre-contraction = 100%; for bladder relaxation in vitro, enantiomer compared with racemic blebbistatin mixture: in vitro studies
# Procedure: as §1
# In vitro organ bath studies: The in vitro contractility studies were performed as previously described by Zhang X, Kuppam D, Aydin M, Melman A, DiSanto M. “In vitro and in vivo relaxation of corpus cavernosum smooth muscle by the selective myosin II inhibitor, blebbistatin.” J Sex Med 2009; 6:2661-71, Sandhu K S, Chua R G, Zhang X, et al. “Regional heterogeneity in expression of the sphingosine-1-phosphate pathway in the female rat lower urinary tract”; Am J Obstet Gynecol 2009; 200:576-7; Chua R G, Calenda G, Zhang X, et al. “Testosterone regulates erectile function and Vcsal expression in the corpora of rats”; Mol Cell Endocrinol 2009; 303:67-73. Bladder strips were mounted longitudinally and aortic rings horizontally in a 5 ml organ bath—Multi-Myograph Model 810MS (bladder) or Model 610M (aorta) (Danish Myo Technology; Aarhus, Denmark). The myograph was connected in line to a PowerLab 4/30 Data Acquisition System (ADInstruments; Colorado Springs, Colo.) and in turn to a Dual-Core processor Pentium computer for real-time monitoring of physiological force. The smooth muscle strips were equilibrated at least 1 hour in Krebs-Henseleit (Krebs) buffer at 37° C. with continuous bubbling of 95% O2 and 5% CO2 and buffer was changed every 15 minutes (min). Strips were continuously adjusted to resting tension (0.5 g for rat bladder and 1 g for human bladder (Yamamoto M, Harm S C, Grasser W A, Thiede M A. “Parathyroid hormone-related protein in the rat urinary bladder: a smooth muscle relaxant produced locally in response to mechanical stretch.” Proc Natl Acad Sci USA 1992; 89:5326-30. After equilibration, rat detrusor was contracted with 60 mM KCl and the force induced by cumulative concentrations (10-5-10-1 M) of carbachol (CC) or electrical field stimulation (EFS) at varying frequencies of 2-32 Hz, pulse duration 1.5 ms, train 5 s, and 80 V, was normalized to that KCl response. Next, all strips were pre-contracted with 60 mM KCl, or 1 μM CC (rat bladder), or 20 nM endothelin-1 (ET-1) (human bladder) and allowed to reach stable tension and then the relaxant effects of increasing doses of blebbistatin were evaluated. For rat detrusor, after pre-incubation with blebbistatin (10 μM) for 30 min, its inhibitory effect on CC (1 μM) induced contractility or aforementioned EFS mediated contractility was also tested. Additionally, the influence of blebbistatin (10 μM) on rat detrusor spontaneous activity and basal tone was evaluated.
# newborn mouse bladder = conditions: 10 uM; cited from earlier work
# rat bladder strips = test: Spontaneous contractions and basal tone of rat bladder strips; format: cell-based
# Procedure: as §1, §2
# [9] = biological target: Myosin II ATPase in pig cardiac muscle (Sus scrofa, UniProt P79293); conditions: in vitro, read-out: IC50, inhibition of Myosin II ATPase; cited from earlier work
# Chain of Myosin II ATPase in pig cardiac muscle (P79293 whole entry): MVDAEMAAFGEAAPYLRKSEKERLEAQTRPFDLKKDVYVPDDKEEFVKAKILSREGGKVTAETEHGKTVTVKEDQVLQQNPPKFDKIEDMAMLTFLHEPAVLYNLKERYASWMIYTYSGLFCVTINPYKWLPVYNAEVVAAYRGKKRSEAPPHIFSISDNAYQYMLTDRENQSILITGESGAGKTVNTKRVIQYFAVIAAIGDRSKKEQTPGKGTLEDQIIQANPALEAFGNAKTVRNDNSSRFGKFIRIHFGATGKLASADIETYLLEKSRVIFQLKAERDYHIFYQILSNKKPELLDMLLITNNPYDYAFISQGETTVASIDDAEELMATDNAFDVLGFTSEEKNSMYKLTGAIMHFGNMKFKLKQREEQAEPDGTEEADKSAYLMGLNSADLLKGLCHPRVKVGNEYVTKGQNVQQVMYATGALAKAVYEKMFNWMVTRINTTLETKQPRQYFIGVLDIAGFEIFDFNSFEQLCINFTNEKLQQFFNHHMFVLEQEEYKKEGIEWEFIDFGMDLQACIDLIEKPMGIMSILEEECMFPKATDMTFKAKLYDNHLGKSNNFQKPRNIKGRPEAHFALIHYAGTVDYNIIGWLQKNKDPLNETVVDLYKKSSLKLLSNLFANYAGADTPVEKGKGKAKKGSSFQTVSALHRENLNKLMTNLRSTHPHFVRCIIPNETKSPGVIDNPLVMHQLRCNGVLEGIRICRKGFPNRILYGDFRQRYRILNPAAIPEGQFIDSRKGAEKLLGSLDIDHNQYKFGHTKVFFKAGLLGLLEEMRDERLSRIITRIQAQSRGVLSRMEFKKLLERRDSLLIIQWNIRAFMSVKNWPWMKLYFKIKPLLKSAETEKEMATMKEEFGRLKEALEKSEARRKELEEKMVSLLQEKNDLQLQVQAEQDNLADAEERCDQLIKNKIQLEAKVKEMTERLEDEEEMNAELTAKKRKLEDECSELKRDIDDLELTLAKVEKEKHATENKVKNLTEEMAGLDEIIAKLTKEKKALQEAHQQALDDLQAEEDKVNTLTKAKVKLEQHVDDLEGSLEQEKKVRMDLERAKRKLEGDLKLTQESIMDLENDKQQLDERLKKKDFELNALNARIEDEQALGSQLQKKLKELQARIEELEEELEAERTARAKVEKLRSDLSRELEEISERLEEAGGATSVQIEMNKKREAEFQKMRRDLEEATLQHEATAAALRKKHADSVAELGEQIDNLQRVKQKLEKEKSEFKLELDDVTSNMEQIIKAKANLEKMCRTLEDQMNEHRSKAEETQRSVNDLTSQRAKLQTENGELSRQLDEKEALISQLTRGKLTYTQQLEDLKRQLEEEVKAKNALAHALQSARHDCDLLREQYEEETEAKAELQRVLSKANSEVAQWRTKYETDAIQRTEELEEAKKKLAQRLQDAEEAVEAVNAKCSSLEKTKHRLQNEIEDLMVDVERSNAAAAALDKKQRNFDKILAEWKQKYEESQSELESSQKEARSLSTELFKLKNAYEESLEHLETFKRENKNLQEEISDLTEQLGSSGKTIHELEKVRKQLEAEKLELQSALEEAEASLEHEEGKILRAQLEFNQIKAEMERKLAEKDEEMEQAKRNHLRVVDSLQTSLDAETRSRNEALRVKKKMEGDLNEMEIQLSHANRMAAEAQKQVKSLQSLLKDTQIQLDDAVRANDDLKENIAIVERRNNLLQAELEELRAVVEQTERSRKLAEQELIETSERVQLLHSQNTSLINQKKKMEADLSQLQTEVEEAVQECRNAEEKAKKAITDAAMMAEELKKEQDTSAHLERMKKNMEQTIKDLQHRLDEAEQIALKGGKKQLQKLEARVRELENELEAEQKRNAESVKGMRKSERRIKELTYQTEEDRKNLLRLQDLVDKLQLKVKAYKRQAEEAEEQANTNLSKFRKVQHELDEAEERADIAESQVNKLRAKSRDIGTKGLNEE
# [10] = test system: Non-muscle Myosin ATPases; conditions: single concentration of 100 micromolar; Toth table IV; cited from earlier work
# [11] = biological target: Porcine Cardiac Muscle Myosin II ATPase (Sus scrofa, UniProt P79293); conditions: single concentration of 100 micromolar; Toth table IV; cited from earlier work
# Chain of Porcine Cardiac Muscle Myosin II ATPase (P79293 whole entry): as above
# [12] = awake rats, intravesical 250 nmols blebbistatin 30 min, n = 5
# [13] = with blebbistatin (10 μM), n = 15 strips from 6 rats
compound,measurement,setting,value
"Cc1ccc2c(c1)C(=O)C1(O)CCN(c3ccccc3)C1=N2 (racemic) [blebbistatin, 3a-hydroxy-6-methyl-1-phenyl-1,2,3,3a-tetrahydro-4H-pyrrolo[2,3b]-quinolin-4-one]",inhibition of EFS-induced bladder contraction,[1],about 50%
same,inhibition of EFS-induced bladder contraction,[1]; listed as racemic blebbistatin,50%
same,BC (bladder capacity),bladder of awake rat; [12],1.4 +/− 0.16 * ml
same,BP (basal pressure),bladder of awake rat; [12],6.9 +/− 1.8 cm H20
same,MF (micturition frequency),bladder of awake rat; [12],7.2 +/− 1.3 *
same,MP (micturition pressure),bladder of awake rat; [12],42 +/− 13 cmH20
same,MV (micturition volume),bladder of awake rat; [12],1.4 +/− 10 * ml
same,RV (residual volume),bladder of awake rat; [12],0.03 ± 0.01 mL
same,decline of voiding frequency,"bladder of awake rat; rat with overactive bladder (OAB), blebbistatin kept in bladder about 5 min",over 50%
same,IC50,[2],5.1 µM
same,attenuation of carbachol (CC) responsiveness,[3],about 65%
same,attenuation of carbachol (CC) responsiveness,[3]; listed as BLEB,about 65%
same,attenuation of carbachol (CC) responsiveness,[3]; listed as racemic blebbistatin,~65%
same,lowering of basal tone,[3]; pre-incubation 10 μm for 30 min,around 300 mg
same,block of adult mouse bladder smooth muscle contraction,[4],did not block
same,relaxation of human bladder pre-contracted with endothelin-1,[5]; 1 μM,60%
same,relaxation of human bladder pre-contracted with endothelin-1,[5]; 3 am (so in the source),~100%
same,relaxation/block of endothelin-1 induced human bladder contraction (in words),[5],completely blocked
same,relaxation/block of endothelin-1 induced human bladder contraction (in words),[5]; listed as Racemic blebbistatin,completely relaxed
same,IC50,[6],79.6 µM
same,IC50,[7],0.5 µM
same,time needed to relax the muscle strip in vitro in a tissue bath,[8],30 to 60 min
same,baseline and peak phasic force of contraction (FIG. 3),"[8]; 10 uM, strip pre-contracted with 1 uM carbacol",significant decrease
same,relaxation of KCl and CC evoked detrusor contraction,[8]; 1 μm,20-30%
same,relaxation of KCl and CC evoked detrusor contraction,[8]; 5 μm,80-100%
same,relaxation of KCl and carbachol induced rat detrusor contraction (in words),"[8]; dose-dependent, 1-10 μM cumulative",completely relaxed
same,inhibition of bladder contraction of a newborn mouse,newborn mouse bladder,did inhibit
same,decrease in the amplitude of spontaneous smooth muscle contractions,rat bladder strips; 10 am (so in the source),~60%
same,Amplitude of spontaneous contractions,rat bladder strips; [13],118 ± 19.33 mg and 120 ± 19 mg
same,Basal Tone,rat bladder strips; [13],310 ± 16 mg
same,Frequency of spontaneous contractions,rat bladder strips; [13],5.5 +/− 1.2 cycles/min
same,IC50,[9],1.2 µM
"Cc1ccc2c(c1)C(=O)C1(O)CCN(c3ccccc3)C1=N2 (single isomer, unassigned; (+)) [(+)-blebbistatin]","bladder relaxation in vitro, enantiomer compared with racemic blebbistatin mixture",[8],did not induce significant bladder relaxation
"Cc1ccc2c(c1)C(=O)[C@]1(O)CCN(c3ccccc3)C1=N2 [(−)-blebbistatin, (−)-3aS-hydroxy-6-methyl-1-phenyl-1,2,3,3a-tetrahydro-4H-pyrrolo[2,3b] quinolin-4-one]",inhibition of Non-muscle Myosin ATPases,[10],inhibited
same,"bladder relaxation in vitro, enantiomer compared with racemic blebbistatin mixture",[8],equipotent
same,inhibition of cardiac muscle Myosin ATPase,[11],inhibited
CN1[C@@H]2CC[C@H]1C[C@@H](OC(=O)C(CO)c1ccccc1)C2 (stereo partly shown) [atropine],time needed to relax the muscle strip in vitro in a tissue bath,[8],3 to 5 min
